Assay results as given in patent US20240342148A1, “METHODS OF TREATING FACIOSCAPULOHUMERAL MUSCULAR DYSTROPHY WITH LOSMAPIMOD” (Fulcrum Therapeutics, Inc., priority 2021, published 2024).

Legend:
Type in all cases: in vivo, human
[1] = tested on: DUX4-regulated gene transcripts; experiment: DUX4-regulated transcript analysis by RT-qPCR in muscle biopsies (primary endpoint); details: log 2 scale
Procedure: All efficacy analyses were performed using the full analysis set (FAS), according to the randomized treatment group. The primary endpoint, change from baseline in DUX4 activity (DUX4 Score 1), was analyzed using the analysis of covariance approach, with treatment group and FSHD repeat number category (1 to 3 repeats versus 4 to 9 repeats) as fixed effects, and baseline DUX4 Score 1 as a covariate. Multiplicity adjustment was not performed, as the primary endpoint was not met.
Muscle needle biopsies were performed using the Bergstrom needle or fine needle at D1 and Wk16, or Wk36 if the muscle biopsy could not be performed at Wk16. The choice of the muscle(s) to be biopsied was determined by the investigator, informed by MRI taken during screening. […] The bilateral vastus lateralis, vastus medialis, lateral gastrocnemius, medial gastrocnemius, and tibialis anterior were evaluated for eligibility by MRI using a central reader. […]
The muscle tissue collected at each muscle needle biopsy (D1 and Wk16 or Wk36) was analyzed for DUX4 activity using a molecular panel of DUX4-regulated gene transcripts (CCNA1, KHDC1L, MBD312, PRAMEF6, SLC34A2 and ZSCAN4, with TBP, HMBS, CDKN1B as reference genes). Raw Cycle Thresholds (Cts) from quantitative polymerase chain reaction (qPCR) were determined for DUX4 regulated genes using a validated assay (Fluidigm). […]

subjects with FSHD [2] = experiment: WB-MSK MRI composite scores (MFI, MFF, LMV)
Source text: The images were acquired in five different sections. The rotator cuff was imaged using a neck coil, torso and legs using anterior surface coils and integrated table coils, and the upper extremities using a surface and table coils, after the patient was repositioned such that the extremity was in the center of the MRI scanner. T1-weighted Dixon-images of 18 muscles bilaterally, 36 total, were acquired and water and fat images were reconstructed using the scanner built-in phase-sensitive reconstruction (Siemens: Dixon-Vibe; Philips: mDixon). Three different measures were calculated for each muscle. The muscle fat fraction (MFF) is the total fat fraction inside the muscle fascia. The muscle fat infiltration (MFI) represents the diffuse fat infiltration in the muscle tissue and is defined as the fat fraction of the muscle voxels that contain <50% fat. Therefore, MFI measures the MFF for muscle tissue that is not end-stage. The lean muscle volume (LMV) represents the total amount of functional muscle tissue and is measured by removing all fat within the muscle volume. Each muscle was categorized based on these measures and supported by prior literature as normal appearing (Category A, MFI<0.10; MFF<0.50), intermediate (Category B, MFI≥0.10; MFF<0.50), and late-stage (Category C, MFF≥0.50). Two composite scores were used to assess the treatment efficacy and correlation with relevant clinical outcome assessments. The treatment efficacy composite score includes only those muscles identified as normal appearing or at high risk for progression (Category A or B muscles) at baseline that were measurable at both observation timepoints, having no signal quality issues. The regional composite scores for correlations are composed of all muscles that were involved in the specific functional assessment of interest regardless of their categorization (FIG. 2). The scores were derived by scientists at the MRI Service Provider (AMRA Medical Inc.) in a blinded fashion, with no access to treatment assignment information. Measurements for muscles with major quality issues, (i.e., muscles with missing values), were imputed. Late-stage muscles were not included in the analysis as these contain high fat fraction which makes them challenging to quantify accurately, and likely are already not functional. A mixed-effects model for repeated measures (MMRM) was used to analyze the change from baseline in each composite MRI score (MFFtotal, LMVtotal, and MFItotal), with repeat number category, treatment group, visit, and treatment-by-visit interactions as fixed effects and baseline value of the parameter as a covariate. […]

subjects with FSHD [3] = experiment: Hand-held dynamometry, maximum voluntary isometric contraction (MVICT)
Procedure: Quantitative isometric dynamometry strength assessments were performed at all visits, except for Week 16. The MicroFET2 hand-held dynamometer was used to measure strength in the bilateral shoulders, elbow flexors and extensors, and ankle dorsiflexors. The Jamar Plus Digital Hand Dynamometer was used to measure bilateral grip strengths. Standard physical therapy techniques were used. Assessment of maximum voluntary isometric contraction (MVICT) was conducted with a hand-held dynamometer.

subjects with FSHD1 = experiment: Muscle ultrasound echogenicity, open-label study in FSHD1
Procedure: Fourteen subjects age 18 to 65 years with genetically confirmed FSHD1, clinical severity score of 2 to 4 (range 0-5) and MRI-eligible skeletal muscles for needle biopsy received open-label 15 mg twice daily losmapimod for 52 weeks with the primary objective of safety. Assessments included safety, MRI, muscle ultrasound (US), clinical outcomes, and PROs. US was performed on 7 muscles bilaterally using a standardized protocol. US echointensity was expressed as a z-score relative to matched healthy controls, with abnormal being defined as >2.

[4] = open-label 15 mg twice daily, 52 weeks

Structure (SMILES): Cc1c(F)cc(C(=O)NC2CC2)cc1-c1ccc(C(=O)NCC(C)(C)C)cn1 [losmapimod, 6-(5-cyclopropylcarbamoyl-3-fluoro-2-methyl-phenyl)-N-(2,2-dimethylpropyl-)-nicotinamide]
- Change in DUX4 activity, difference losmapimod vs placebo ([1]; 95% CI −1.04, 1.89, p=0.56): 0.43
- Change from baseline in DUX4 activity ([1]; combined Wk16 or Wk36 muscle biopsies): 0.83
- MFI or MFF in normal appearing muscles at baseline (A muscles), post-hoc (subjects with FSHD [2]; A muscles, compared to placebo): little or no accumulation of fat
- LMV vs placebo (subjects with FSHD [2]; B muscles): no difference
- MFF fat replacement vs placebo (subjects with FSHD [2]; B muscles): nonsignificant reduction
- MFI efficacy composite vs placebo (subjects with FSHD [2]; muscles at high risk of progression (B muscles), p=0.01): significantly less fat infiltration
- MVICT strength change, ankle dorsiflexors, left ankle (subjects with FSHD [3]; Wk48, post-hoc): 27.17%
- MVICT strength change, ankle dorsiflexors, right ankle (subjects with FSHD [3]; Wk48, post-hoc): 12.72%
- MVICT strength change, shoulder abductors, non-dominant shoulder (subjects with FSHD [3]; Wk48, post-hoc): 17.85%
- MVICT strength change, shoulder abductors, dominant shoulder (subjects with FSHD [3]; Wk48, post-hoc, ns): −3.79%
- MVICT difference vs placebo, non-dominant shoulder (subjects with FSHD [3]; Wk48, post-hoc, p<0.01): 34.89
- MVICT difference vs placebo, right ankle (subjects with FSHD [3]; Wk48, post-hoc, p<0.05): 38.39
- MVICT difference vs placebo, left ankle (subjects with FSHD [3]; Wk48, post-hoc, p=0.11): 37.37
- Average or MVICT in other muscle groups (bilateral hand grip, elbow flexors or extensors) (subjects with FSHD [3]; vs placebo): No difference
- Mean (SD) change from baseline in echogenicity of all muscles (subjects with FSHD1; [4]): -0.17 (0.9) z-score
- Mean (SD) change from baseline in echogenicity, lower extremities (subjects with FSHD1; [4]): −0.13 (1.0) z-score
- Mean (SD) change from baseline in echogenicity, upper extremity muscles (subjects with FSHD1; [4]): −0.32 (0.9) z-score
- Distribution of echogenicity z-scores of muscles at baseline versus the last visit (subjects with FSHD1; z-score classes <2, 2-4, 4-6, >6): stayed the same or decreased
